In brackets after ≈: the same amount, converted by molar mass. Where only a bound is given, the exact number is not on record here.

66 compounds from PubChem BioAssay AID1645848 can be followed below.

For the data set the following is noted: buffer; pH 7.4; 6.0 h; 150.0 µM.

Turning to `CC(=O)c1c(C)[nH]c(C(=O)Nc2cccc([S+](=O)([O-])Nc3cccnc3)c2)c1C`, the solubility (kinetic) (usually the concentration staying in solution when a stock, usually in DMSO, is diluted into the medium) is greater than 61 µg/mL.
In the case of `CCOc1ccc(CCNC(=O)c2cc3sccc3n2Cc2cccc(C)c2)cc1OCC` it was less than 1 µg/mL; in that of `CCCCNc1oc(-c2cccc3ccccc23)nc1C#N`, less than 1 µg/mL.
In the case of `Brc1ccc(-c2csc(N3CCNCC3)n2)cc1` it was 6.59 µg/mL (≈ 20.3 µM).
In the case of `CC(=O)Nc1cccc(Nc2nc3ccccc3n3c(C)nnc23)c1` it was less than 1 µg/mL.
Consider `COC(=O)Nc1nc2ccc(SC(C)C)cc2[nH]1`, for which the kinetic solubility was less than 1 µg/mL.
In the case of `COc1ccc(-n2c(C)cc(C3=NNC(=NC4CC4)SC3)c2C)cc1` it was 14 µg/mL (≈ 39.5 µM); in that of `Cc1c(C)n(Cc2ccccc2)c2ccc(C(=O)OCCN(C)C)cc12`, 33 µg/mL (≈ 94 µM); in that of `COc1cc(-c2nc(Nc3ccc(F)c(F)c3)c3ccccc3n2)ccn1`, less than 1 µg/mL.
In the case of `Cc1cc(SCc2sc(-c3ccc(C(F)(F)F)cc3)nc2C)ccc1OCC(=O)O` it was greater than 67 µg/mL; in that of `O=C(c1nc(-c2ccc(Cl)nc2)c2ccccn12)N1CCCC1`, 2.73 µg/mL (≈ 8.36 µM); in that of `Cc1ccc(CSCc2ccc(C(=O)NC3CC3)o2)cc1`, greater than 44 µg/mL.
In the case of `O=C(CCc1ccccc1)NC(c1cccs1)c1cc(Cl)c2cccnc2c1O` (stereo unspecified) it was less than 1 µg/mL; in that of `Cc1ccnc(NC(=S)N2CCN(c3cccc(C(F)(F)F)n3)CC2)c1`, 3.88 µg/mL (≈ 10.2 µM).
On to `Cc1csc2c1c(=O)n(O)c(=O)n2Cc1ccccc1`, for which the kinetic solubility is greater than 43 µg/mL.
Turning to `CC(C)c1ccccc1-c1nc(NCc2ccc(-c3cccnc3)cc2)c2ccccc2n1`, the kinetic solubility was less than 1 µg/mL.
The figure for `CCOC(=O)C1(Cc2ccccc2C(F)(F)F)CCN(C2CCN(C(C)C)CC2)CC1` is 55 µg/mL (≈ 125 µM).
In the case of `Cc1ccc(NS(=O)(=O)c2ccc(C(=O)Nc3nc(-c4ccccc4)cs3)cc2)cc1` it was less than 1 µg/mL; in that of `COc1ccc(OC)c(Nc2c3c(nc4ccccc24)CCC3)c1`, greater than 47 µg/mL; in that of `O=C(c1ccncc1)N1CCC2(CCCN(C(c3ccccc3)c3ccccc3)C2)CC1`, less than 1 µg/mL.
`CC(Nc1ncnc2c1cnn2-c1cccc(Cl)c1)c1ccccc1` (stereo unspecified) displayed a solubility (kinetic) of less than 1 µg/mL.
The figure for `COc1ccc2nc(C)cc(Nc3ccc(Cl)c(Cl)c3)c2c1` is less than 1 µg/mL; for `CC1=C(C(=O)Nc2nccs2)C(c2ccccc2Br)N=C(Nc2nc3ccccc3o2)N1` (stereo unspecified) it is less than 1 µg/mL.
In the case of `CC1(C)CC2CC(C)(CN2S(=O)(=O)c2ccc(C(=O)Nc3ccc(Cl)cc3)cc2)C1` (stereo unspecified) it was less than 1 µg/mL; in that of `O=[S+]([O-])(Nc1nccs1)c1ccc(NCc2cc(F)cc(Cl)c2O)cc1`, 18.5 µg/mL (≈ 44.7 µM).
The figure for `COc1ccc(Cl)cc1C(=O)Nc1ccc(NC(=O)c2ccco2)cc1` is less than 1 µg/mL.
`CNC(=O)c1cc(Oc2ccc(NC(=O)Nc3ccc(Cl)c(C(F)(F)F)c3)c(F)c2)ccn1` came in with a kinetic solubility of less than 1 µg/mL.
The compound `Cn1c(=O)c2c(nc(Cl)n2Cc2ccc(Cl)cc2)n(C)c1=O` yielded a solubility (kinetic) of 2.15 µg/mL (≈ 6.32 µM).
The figure for `C[C@H]1CN(C(=O)Nc2ccc(F)cc2)C[C@@H]1c1nc(-c2ccccc2)no1` is 4.11 µg/mL (≈ 11.2 µM); for `CC(=O)N1CCc2cc(-c3nc(NC(=O)Cc4ccc5c(c4)OCO5)sc3C)ccc21` it is less than 1 µg/mL; for `O=C(Nc1ccc(Cl)c(S(=O)(=O)N2CCOCC2)c1)c1ccc(S(=O)(=O)N2CCOCC2)cc1` it is less than 1 µg/mL.
The figure for `Nc1cc(CN2C(=O)c3ccccc3C2=O)cc(Cl)c1O` is 20.8 µg/mL (≈ 68.8 µM); for `Clc1ccccc1-c1nc(NCc2ccc(-c3cccnc3)cc2)c2ccccc2n1` it is less than 1 µg/mL; for `CCc1ccc(C2C(C(=O)Nc3ccccc3OC)=C(C)Nc3c(C(=O)Nc4ccc(C)cc4)cnn32)cc1` (stereo unspecified) it is 5.74 µg/mL (≈ 11 µM).
In turn, `Cc1ccc(S(=O)(=O)Nc2ccc(OC(F)(F)F)cc2C(=O)Nc2nc(-c3ccccc3)cs2)cc1` yielded a kinetic solubility of less than 1 µg/mL.
The figure for `C#CCNC(=O)c1nc(-c2ccc([S+](C)(=O)[O-])cc2)c2ccccn12` is 1.27 µg/mL (≈ 3.59 µM); for `Cc1c(O)ccc2c1OC(C)(C)CC2` it is 8.29 µg/mL (≈ 43.1 µM).
In the case of `O=C(NCc1ccccc1)c1nc(S(=O)(=O)Cc2ccc(F)cc2)ncc1Cl` it was less than 1 µg/mL.
`COc1ccccc1N1CCN(C2CCCCC2NS(=O)(=O)c2ccccc2)CC1` (stereo unspecified) showed a kinetic solubility of 2.68 µg/mL (≈ 6.25 µM).
In the case of `CCOC(=O)C1CCN(C(=O)C2(NC(=O)Nc3ccccc3Cl)CCCC2)CC1` it was 41.8 µg/mL (≈ 99 µM); in that of `O=C([C@@H]1CCCN(c2ccc3[nH]c(C4(n5cc(Cl)cn5)CC4)nc3n2)C1)N1CCCC1`, 27.2 µg/mL (≈ 61.8 µM).
The figure for `O=C(O)c1cccc(-n2cccc2/C=C2/NC(=O)N(c3cccc(Cl)c3)C2=O)c1` is 32.7 µg/mL (≈ 80.1 µM); for `COCC(C)Nc1ncnc2c1cnn2-c1ccc(C)c(C)c1` (stereo unspecified) it is 5.58 µg/mL (≈ 17.9 µM); for `O=C(Nc1ncnc2sc3c(c12)CCCCC3)c1ccco1` it is 1.72 µg/mL (≈ 5.49 µM).
The figure for `COc1cccc(CNc2ccc(S(=O)(=O)Nc3nccs3)cc2)c1N` is greater than 58 µg/mL; for `Cc1cccc(N2CCN(c3nc4ccccc4c4nnc(C)n34)CC2)c1C` it is less than 1 µg/mL; for `Cc1ccc(NS(=O)(=O)c2c(C)[nH]c(C)c2C(=O)N2CCCC2)cc1Cl` it is 48 µg/mL (≈ 121 µM).
The compound `Oc1ccc(CNc2ccc(F)cc2F)c2cccnc12` gave a kinetic solubility of 1.22 µg/mL (≈ 4.27 µM).
The figure for `COc1cc(CNCCO)cc(Cl)c1OCc1ccc(Cl)cc1Cl.Cl` is 40 µg/mL; for `CCOc1cccc(C(=O)Nc2nc3c(s2)CC(C(C)(C)C)CC3)c1` (stereo unspecified) it is less than 1 µg/mL.
The figure for `Cc1cnc(-c2ccccc2C(C)C)nc1NCC1CN(c2cccnc2)C1` is 36.3 µg/mL (≈ 97.2 µM).
The figure for `CN(C)CCCn1cc(C2=C(c3c[nH]c4ccccc34)C(=O)NC2=O)c2ccccc21` is greater than 41 µg/mL.
On to `Cc1ccc(CNCc2cn[nH]c2-c2ccc(C)cc2)cc1`, for which the kinetic solubility is 30 µg/mL (≈ 103 µM).
In the case of `O=C1CCC(CNC(=O)c2nc(-c3ccccc3)cc3[nH]ccc23)N1` (stereo unspecified) it was greater than 74 µg/mL; in that of `CC(C)(C)c1ccc(SC2=NS(=O)(=O)c3ccccc32)cc1`, less than 1 µg/mL.
The figure for `COC(=O)CNC(=O)c1nc(-c2ccc(Cl)cc2Cl)c2cnccn12` is 14.2 µg/mL (≈ 37.6 µM); for `Fc1ccc(Nc2nc(-c3ccncc3Cl)nc3ccccc23)cc1F` it is less than 1 µg/mL.
The figure for `Cc1noc(C)c1C(=O)N1CCC2(CCCN(C(c3ccccc3)c3ccccc3)C2)CC1` is 1.15 µg/mL (≈ 2.6 µM); for `O=S(=O)(c1ccccc1)N1CCN(c2nc(-c3ccc(Br)cc3)cs2)CC1` it is 1.23 µg/mL (≈ 2.66 µM); for `Cc1ccc(-n2ncc3c(NCCCN(C)C)ncnc32)cc1Cl` it is greater than 51 µg/mL.
`CCn1ncc(NC(=O)Cn2ncc3cc(-c4cccc(OC)c4)ccc32)n1` showed a solubility (kinetic) of less than 1 µg/mL.
The figure for `O=C(CNC(=O)c1cnccn1)NC1CCCc2c1[nH]c1ccc(Cl)cc21` (stereo unspecified) is 1.46 µg/mL (≈ 3.79 µM).
The figure for `O=C(Nc1ncc(Cc2ccc(C(F)(F)F)cc2)s1)c1ncc(-c2ccccc2)[nH]1` is less than 1 µg/mL; for `Cc1cc(-c2nc(Nc3ccc(F)c(F)c3)c3ccccc3n2)ccn1` it is less than 1 µg/mL.
For `O=C(Nc1ccccc1C(=O)Nc1cccc(C(F)(F)F)c1)c1ccccc1`, the kinetic solubility is less than 1 µg/mL.
In the case of `COC(=N)c1nc2ccc3ncnc(Nc4ccc(F)cc4Br)c3c2s1` it was less than 1 µg/mL.
